Laboratory results: PubChem BioAssay (NCI)
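Dose response: 5 concentrations. Exposure: 48 h. Format: 96-well plates. Endpoint: linear interpolation; highest concentration if not reached. TGI: concentration producing complete growth inhibition.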

Key:
Assay in all cases: DTP human tumour cell line panel, 48 h
HCT-15 colon = tested on: HCT-15 colon
SF-268 CNS = tested on: SF-268 CNS
MDA-N = tested on: MDA-N
HOP-92 NSCLC = tested on: HOP-92 NSCLC
RPMI-8226 leukemia = tested on: RPMI-8226 leukemia
UACC-257 melanoma = tested on: UACC-257 melanoma
OVCAR-8 ovarian = tested on: OVCAR-8 ovarian
SR leukemia = tested on: SR leukemia
LOX IMVI melanoma = tested on: LOX IMVI melanoma
HS 578T breast = tested on: HS 578T breast
MDA-MB-435 = tested on: MDA-MB-435
NCI-H460 lung = tested on: NCI-H460 lung
CAKI-1 renal = tested on: CAKI-1 renal
T-47D breast = tested on: T-47D breast

Row | Compound | TGI (HCT-15 colon) | TGI (SF-268 CNS) | TGI (MDA-N) | TGI (HOP-92 NSCLC) | TGI (RPMI-8226 leukemia) | TGI (UACC-257 melanoma) | TGI (OVCAR-8 ovarian) | TGI (SR leukemia) | TGI (LOX IMVI melanoma) | TGI (HS 578T breast) | TGI (MDA-MB-435) | TGI (NCI-H460 lung) | TGI (CAKI-1 renal) | TGI (T-47D breast)
1 | CC(=O)OCC(=O)OC[C@H](OCc1ccccc1)[C@@H]1[C@H](OC(C)=O)C(=O)N1Cc1ccccc1 | > 100 µM | > 100 µM | > 100 µM | > 100 µM | > 100 µM | > 100 µM | > 100 µM | > 100 µM | > 100 µM | > 100 µM | > 100 µM | – | – | –
2 | COc1cc(C2(c3ncc[nH]3)SSSCC2O)ccc1O (centres undefined) | > 100 µM | 23.8 µM | – | 58.3 µM | > 100 µM | 28.5 µM | > 100 µM | – | > 54.5 µM | – | – | > 74.7 µM | > 100 µM | –
3 | CC1=CC[C@@]2(C)CC[C@](O)(C(C)C)C2C(OC(=O)c2ccccc2)C1 (some centres undefined) | 34.2 µM | 51.7 µM | – | 29.7 µM | 37.2 µM | 35.1 µM | 37.5 µM | 97 µM | 42 µM | 47.9 µM | 93.2 µM | 40.6 µM | 44.9 µM | 42.6 µM
4 | CCCCCCCCCOCC(COP(=O)([O-])OCC[N+](C)(C)C)OC (centres undefined) | > 100 µM | > 100 µM | – | > 100 µM | > 100 µM | > 100 µM | > 100 µM | – | > 100 µM | – | – | > 100 µM | > 100 µM | –
5 | CCN(CC)CCN(C)c1ccc(CO)c2c1C(=O)c1ccccc1S2=O (centres undefined) | 12.9 µM | 35.9 µM | – | 30.5 µM | 11.8 µM | 3.55 µM | 3.5 µM | 5.53 µM | 3.66 µM | 28.5 µM | 3.65 µM | 27.8 µM | 26.2 µM | 28.2 µM
6 | CCOC(=O)CC(NC(=O)c1[nH]cnc1/N=N/N(C)C)C(=O)OCC (centres undefined) | > 100 µM | > 100 µM | – | – | > 100 µM | > 100 µM | > 100 µM | > 100 µM | > 100 µM | – | – | > 100 µM | > 100 µM | –
7 | CSc1nc2c(c(=O)n1C)N=C(c1ccc([N+](=O)[O-])cc1)CC(c1ccccc1)N2 (centres undefined) | – | – | – | > 100 µM | > 100 µM | > 100 µM | > 100 µM | > 100 µM | > 100 µM | – | > 100 µM | > 100 µM | > 100 µM | –
8 | CCOC(=O)c1nc2cc(C(F)(F)F)ccc2nc1Nc1ccc(C(=O)OC)s1 | > 100 µM | > 100 µM | – | 54 µM | > 100 µM | > 100 µM | > 100 µM | 39.6 µM | > 100 µM | > 100 µM | > 100 µM | > 100 µM | > 100 µM | > 100 µM
9 | CCOC(=O)/C(=N/Nc1ccccc1)N1C(=S)C=C(C)NN(C)C1=S | > 100 µM | > 100 µM | – | > 100 µM | > 100 µM | > 100 µM | > 100 µM | > 100 µM | – | > 100 µM | > 100 µM | > 100 µM | > 100 µM | > 100 µM
10 | Clc1ccc(CCN[C@H]2CCCC[C@H]2N2CCCC2)cc1Cl | 49.5 µM | > 100 µM | 38.5 µM | – | 97.1 µM | 28.5 µM | > 100 µM | > 100 µM | 32.4 µM | > 100 µM | 43.8 µM | 58.4 µM | > 100 µM | –
11 | CC(=O)O[C@H]1C(=O)[C@@]2(C)[C@H]([C@H](OC(=O)c3ccccc3)[C@]3(O)C[C@H](OC(=O)[C@H](O)[C@@H](NC(=O)c4ccco4)c4ccccc4)C(C)=C1C3(C)C)[C@]1(OC(C)=O)CO[C@@H]1C[C@@H]2O | > 12.5 µM | > 12.5 µM | – | – | < 0.00125 µM | – | > 12.5 µM | > 12.5 µM | > 12.5 µM | 0.00279 µM | – | > 12.5 µM | > 12.5 µM | > 12.5 µM
12 | CCCc1cc(COC)c(C#N)c(=O)[nH]1 | > 100 µM | > 100 µM | > 100 µM | – | > 100 µM | > 100 µM | > 100 µM | – | > 100 µM | > 100 µM | > 100 µM | > 100 µM | > 100 µM | > 100 µM
13 | CC(C)CC(N)C(=O)Nc1ccc2ccccc2c1 (centres undefined) | > 100 µM | > 100 µM | > 100 µM | – | > 100 µM | > 100 µM | > 100 µM | > 100 µM | > 100 µM | > 100 µM | – | – | > 100 µM | > 100 µM
14 | COc1cccc(/C=C2\S/C(=N/Nc3nc(C)c(C)s3)NC2=O)c1O | > 100 µM | > 100 µM | > 100 µM | > 100 µM | – | > 100 µM | > 100 µM | – | > 100 µM | – | > 100 µM | > 100 µM | > 100 µM | 73.8 µM
